In article PMC3371172 (Chemical biology & drug design, 2012):
Non-standard residues stand in square brackets, D forms with d. Residues, ends and D or L forms follow the SMILES beside them. No end group written: not given here.

How the values were obtained:
HUVEC [1] = conditions: 20 µM; cited from earlier work
HUVEC [2] = conditions: 20 µM; cited from earlier work; remark: listed apart in the source
HUVEC [3] = format: cell-based, human

Compound	inhibition of HUVEC proliferation (HUVEC [1]) [%]	inhibition of HUVEC migration (HUVEC [2]) [%]	IC50 (HUVEC [3]) [µM]
LRRFSTMPFMFCNINNVCNF [SP2000]	70	60	–
CC[C@H](C)[C@H](NC(=O)[C@H](CC(N)=O)NC(=O)[C@@H](NC(=O)[C@H](Cc1ccccc1)NC(=O)[C@@H](C)NC(=O)[C@H](Cc1ccccc1)NC(=O)[C@@H]1CCCN1C(=O)[C@H](CCSC)NC(=O)[C@@H](NC(=O)[C@H](CO)NC(=O)[C@H](Cc1ccccc1)NC(=O)[C@H](CCCNC(=N)N)NC(=O)[C@H](CCCNC(=N)N)NC(=O)[C@@H](N)CC(C)C)[C@@H](C)O)[C@@H](C)CC)C(=O)N[C@@H](CC(N)=O)C(=O)N[C@@H](CC(N)=O)C(=O)N[C@H](C(=O)N[C@H](C(=O)N[C@@H](CC(N)=O)C(=O)N[C@@H](Cc1ccccc1)C(N)=O)[C@@H](C)CC)C(C)C [SP2034] (H-LRRFSTMPF[dA]FININNVINF-NH2)	–	–	0.54 ± 0.19
LRRFSTMPFMFININNVINF-NH2 [SP2024]	–	–	7.45 ± 5.7
